We go through 17 compounds from patent US20160046618A1, “Cyclopropyl Fused Thiazin-2-Amine Compounds as Beta-Secretase Inhibitors and Methods of Use” (AMGEN INC., priority 2014, published 2016).

In test [1] the target is Recombinant Cat D (Homo sapiens (Human), UniProt P07339). The experiment in a line: In vitro enzymatic Cathepsin D (Cat D) FRET assay. It is filed as biochemical. The note with it: read-out: IC50 IP (μM) CatD. A digest of the protocol:
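Fluorescence at 500 nm excitation and 580 nm emission reports cleavage of a quenched fluorophore–quencher peptide (20 nM) by CHO-expressed Cat D. Reactions ran one hour in 0.05 M citrate pH 3.5, 5 mM CHAPS, 10% DMSO final before a Tris stop raised pH to neutrality.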

For test [2], the target named is human recombinant BACE1 (Homo sapiens (Human), UniProt P56817). The test is described as follows: In vitro enzymatic BACE1 FRET assay. It is filed as biochemical. The note with it: read-out: IC50 IP (μM) BACE1 enzyme. A digest of the protocol: (§1)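 FRET cleavage assay using Ni-NTA-purified recombinant protease and 50 nM quenched peptide substrate, 1 h. Stopped by neutralising with Tris; fluorescence at 488/590 nm.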

Test [3] deals with Aβ40 in conditioned medium of cells stably expressing Amyloid Precursor Protein (APP). The experiment in a line: In vitro BACE-1 cell-based assay (Aβ40 sandwich ELISA). The following applies: read-out: IC50 IP (μM) BACE1 cell. An outline of the steps: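 APP-stable cells, pre-cultured 24 h at 37° C in DMEM/10% FBS, were treated 24 h with compound in a 10-point series starting at 100 μM or 10 μM (0.1% DMSO final). Secreted Aβ40 in conditioned medium was measured by pAb40/biotin-6E10 sandwich ELISA with Europium time-resolved fluorescence; IC50 from percent inhibition versus concentration.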
On the technique in general: In an ELISA, binding on a coated surface is turned into a signal by an enzyme label.

Test [4] concerns the target human recombinant BACE2 (Homo sapiens (Human), UniProt Q9Y5Z0). The test is described as follows: In vitro enzymatic BACE2 FRET assay. The format is biochemical. The following applies: read-out: IC50 IP (μM) BACE2 enzyme. A digest of the protocol:
as §1

SMILES strings stand for the structures.

human recombinant BACE2, sequence (Q9Y5Z0 63-518): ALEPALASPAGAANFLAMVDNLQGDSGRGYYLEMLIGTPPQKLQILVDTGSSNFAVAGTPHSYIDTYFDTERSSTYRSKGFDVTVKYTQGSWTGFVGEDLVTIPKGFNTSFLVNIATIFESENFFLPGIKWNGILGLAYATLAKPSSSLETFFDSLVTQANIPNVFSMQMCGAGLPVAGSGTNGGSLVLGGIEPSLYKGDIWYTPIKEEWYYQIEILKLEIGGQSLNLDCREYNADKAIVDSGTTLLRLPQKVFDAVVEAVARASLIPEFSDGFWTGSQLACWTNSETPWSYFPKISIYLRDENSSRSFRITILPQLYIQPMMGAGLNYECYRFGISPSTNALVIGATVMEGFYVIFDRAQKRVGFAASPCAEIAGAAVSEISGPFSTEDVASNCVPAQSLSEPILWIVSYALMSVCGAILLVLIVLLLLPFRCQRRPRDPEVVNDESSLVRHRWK
human recombinant BACE1, sequence (P56817 46-501): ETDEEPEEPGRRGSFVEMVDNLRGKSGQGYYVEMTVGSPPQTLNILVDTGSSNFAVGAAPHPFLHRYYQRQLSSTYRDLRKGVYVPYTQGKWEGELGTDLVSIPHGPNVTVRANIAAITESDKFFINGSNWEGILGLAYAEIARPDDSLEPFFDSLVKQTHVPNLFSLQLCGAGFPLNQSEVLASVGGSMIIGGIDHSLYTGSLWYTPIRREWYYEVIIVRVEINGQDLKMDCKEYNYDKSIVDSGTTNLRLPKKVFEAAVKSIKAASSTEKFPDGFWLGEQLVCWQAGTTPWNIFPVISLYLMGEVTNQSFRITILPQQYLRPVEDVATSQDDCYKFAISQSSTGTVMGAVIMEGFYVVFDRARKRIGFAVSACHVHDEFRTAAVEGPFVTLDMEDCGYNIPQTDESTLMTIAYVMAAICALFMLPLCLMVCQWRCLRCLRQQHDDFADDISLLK
Recombinant Cat D, sequence (P07339 65-412): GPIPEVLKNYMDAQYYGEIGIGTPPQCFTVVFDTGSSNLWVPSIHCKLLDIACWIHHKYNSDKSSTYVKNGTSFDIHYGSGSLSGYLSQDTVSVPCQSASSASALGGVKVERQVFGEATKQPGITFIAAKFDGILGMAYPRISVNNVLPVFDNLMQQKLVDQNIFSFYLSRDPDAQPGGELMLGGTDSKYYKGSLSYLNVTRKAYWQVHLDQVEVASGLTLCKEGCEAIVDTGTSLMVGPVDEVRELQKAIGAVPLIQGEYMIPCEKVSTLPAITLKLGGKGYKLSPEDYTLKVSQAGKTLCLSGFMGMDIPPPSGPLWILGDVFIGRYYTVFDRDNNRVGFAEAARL

For orientation: IC50 means the concentration that gives 50% inhibition. For the compound `C[C@]1(c2cc(NC(=O)c3cnc(OCC(F)(F)F)cn3)ccc2F)N=C(N)S[C@@]2(C(=O)NCC(F)F)C[C@H]21` [Example 999, (1S,5S,6S)-3-amino-N-(2,2-difluoroethyl)-5-(2-fluoro-5-(5-(2,2,2-trifluoroethoxy)pyrazine-2-carboxamido)phenyl)-5-methyl-2-thia-4-azabicyclo[4.1.0]hept-3-ene-1-carboxamide], the concentration for half-maximal inhibition (IC50) in test [1] was determined as 180 µM; in test [2], 90 pM; in test [3], 0.00613 µM; in test [4], 0.0755 µM.

On to `CN(C)C(=O)[C@]12C[C@H]1[C@@](C)(c1cc(NC(=O)c3cnc(OCC(F)(F)F)cn3)ccc1F)N=C(N)S2` [Example 1000, (1S,5S,6S)-3-amino-5-(2-fluoro-5-(5-(2,2,2-trifluoroethoxy)pyrazine-2-carboxamido)phenyl)-N,N,5-trimethyl-2-thia-4-azabicyclo[4.1.0]hept-3-ene-1-carboxamide], for which the half-inhibitory concentration (IC50) in test [1] was 1000 µM; in test [2] it was 70 pM; in test [3], 0.000921 µM; in test [4], 0.00345 µM.

As for `COC[C@H](C)Oc1cnc(C(=O)Nc2ccc(F)c([C@@]3(C)N=C(N)S[C@@]4(C(=O)NC5CC5)C[C@H]43)c2)cn1` [Example 1001, (1S,5S,6S)-3-amino-N-cyclopropyl-5-(2-fluoro-5-(((5-((1S)-2-methoxy-1-methylethoxy)-2-pyrazinyl)carbonyl)amino)phenyl)-5-methyl-2-thia-4-azabicyclo[4.1.0]hept-3-ene-1-carboxamide], the IC50 in test [1] amounted to 492 µM; in test [2], 59 pM; in test [3] it was 0.00589 µM; in test [4] it was 0.356 µM.

Take `CC(C)(C)NC(=O)[C@]12C[C@H]1[C@@](C)(c1cc(NC(=O)c3cnc(OCC(F)(F)F)cn3)ccc1F)N=C(N)S2` [Example 1002, (1S,5S,6S)-3-amino-N-tert-butyl-5-(2-fluoro-5-(((5-(2,2,2-trifluoroethoxy)-2-pyrazinyl)carbonyl)amino)phenyl)-5-methyl-2-thia-4-azabicyclo[4.1.0]hept-3-ene-1-carboxamide]: the half-maximal inhibitory concentration (IC50) in test [1] came to 82.7 µM; in test [2], 1770 pM; in test [3] it was 0.00484 µM; in test [4] it was 0.165 µM.

As to `COC[C@H](C)Oc1cnc(C(=O)Nc2ccc(F)c([C@@]3(C)N=C(N)S[C@@]4(C(=O)NC(C)(C)C)C[C@H]43)c2)cn1` [Example 1003, (1S,5S,6S)-3-amino-N-tert-butyl-5-(2-fluoro-5-(((5-((1S)-2-methoxy-1-methylethoxy)-2-pyrazinyl)carbonyl)amino)phenyl)-5-methyl-2-thia-4-azabicyclo[4.1.0]hept-3-ene-1-carboxamide], the half-maximal inhibitory concentration (IC50) in test [1] came out at 297 µM; in test [2], 5650 pM; in test [3], 0.021 µM; in test [4], 0.48 µM.

As for `C#CCOc1cnc(C(=O)Nc2cc(F)c(F)c([C@@]3(C)N=C(N)S[C@@]4(C(=O)N5CCOCC5)C[C@H]43)c2)cn1` [Example 1004, N-(3-((1S,5S,6S)-3-amino-5-methyl-1-(morpholine-4-carbonyl)-2-thia-4-azabicyclo[4.1.0]hept-3-en-5-yl)-4,5-difluorophenyl)-5-(prop-2-yn-1-yloxy)pyrazine-2-carboxamide], the IC50 in test [1] stood at 14.9 µM; in test [2], 100 pM; in test [3], 0.000324 µM; in test [4], 0.00235 µM.

In the case of `C#CCOc1cnc(C(=O)Nc2ccc(F)c([C@@]3(C)N=C(N)S[C@@]4(C(=O)N5CCOCC5)C[C@H]43)c2)cn1` [Example 1005, N-(3-((1S,5S,6S)-3-amino-5-methyl-1-(morpholine-4-carbonyl)-2-thia-4-azabicyclo[4.1.0]hept-3-en-5-yl)-4-fluorophenyl)-5-(prop-2-yn-1-yloxy)pyrazine-2-carboxamide], the concentration for half-maximal inhibition (IC50) in test [1] worked out at 72.1 µM; in test [2] it was 384 pM; in test [3] it was 0.00108 µM; in test [4] it was 0.00516 µM.

In the case of `C#CCOc1cnc(C(=O)Nc2ccc(F)c([C@@]3(C)N=C(N)S[C@@]4(C(=O)NC(C)(C)CF)C[C@H]43)c2)cn1` [Example 1006, (1S,5S,6S)-3-amino-N-(1-fluoro-2-methylpropan-2-yl)-5-(2-fluoro-5-(5-(prop-2-yn-1-yloxy)pyrazine-2-carboxamido)phenyl)-5-methyl-2-thia-4-azabicyclo[4.1.0]hept-3-ene-1-carboxamide], the IC50 in test [1] is 7.08 µM; in test [2], 885 pM; in test [3], 0.000575 µM; in test [4] it was 0.0213 µM.

Turning to `COC[C@]12C[C@H]1[C@@](C)(c1cc(NC(=O)c3cnc(Cl)cn3)cc(F)c1F)N=C(N)S2` [Example 1007], the half-maximal inhibitory concentration (IC50) was found to be 460 µM in test [1], 7020 pM in test [2], 0.73 µM in test [3] and 0.00484 µM in test [4].

`COC[C@]12C[C@H]1[C@@](C)(c1cc(NC(=O)c3cnc(OCc4nc(C)no4)cn3)ccc1F)N=C(N)S2` [Example 1008, N-(3-((1S,5S,6S)-3-amino-1-(methoxymethyl)-5-methyl-2-thia-4-azabicyclo[4.1.0]hept-3-en-5-yl)-4-fluorophenyl)-5-((3-methyl-1,2,4-oxadiazol-5-yl)methoxy)-2-pyrazinecarboxamide]: the IC50 was over 400 µM in test [1], 4710 pM in test [2], 0.0022 µM in test [3] and 0.195 µM in test [4].

For `C#C[C@H](C)Oc1cnc(C(=O)Nc2cc(F)c(F)c([C@@]3(C)N=C(N)S[C@@]4(COC)C[C@H]43)c2)cn1` [Example 1009, N-(3-((1S,5S,6S)-3-amino-1-(methoxymethyl)-5-methyl-2-thia-4-azabicyclo[4.1.0]hept-3-en-5-yl)-4,5-difluorophenyl)-5-(((1S)-1-methyl-2-propyn-1-yl)oxy)-2-pyrazinecarboxamide], the half-inhibitory concentration (IC50) in test [1] was found to be 936 µM; in test [2], 695 pM; in test [3], 0.00254 µM; in test [4], 0.0436 µM.

Regarding `COC[C@H](C)Oc1cnc(C(=O)Nc2cc(F)c(F)c([C@@]3(C)N=C(N)S[C@@]4(C#N)C[C@H]43)c2)cn1` [Example 1010, N-(3-((1S,5S,6S)-3-amino-1-cyano-5-methyl-2-thia-4-azabicyclo[4.1.0]hept-3-en-5-yl)-4,5-difluorophenyl)-5-(((S)-1-methoxypropan-2-yl)oxy)pyrazine-2-carboxamide], the 50% inhibitory concentration (IC50) is over 400 µM in test [1], 3200 pM in test [2], 0.0309 µM in test [3] and 0.0669 µM in test [4].

In the case of `C#C[C@H](C)Oc1cnc(C(=O)Nc2cc(F)c(F)c([C@@]3(C)N=C(N)S[C@@]4(C#N)C[C@H]43)c2)cn1` [Example 1011, N-(3-((1S,5S,6S)-3-amino-1-cyano-5-methyl-2-thia-4-azabicyclo[4.1.0]hept-3-en-5-yl)-4,5-difluorophenyl)-5-(((1S)-1-methyl-2-propyn-1-yl)oxy)-2-pyrazinecarboxamide], the IC50 turned out to be 741 µM in test [1], 465 pM in test [2], 0.00353 µM in test [3] and 0.00908 µM in test [4].

As for `C[C@]1(c2cc(NC(=O)c3ccc(OCC(F)(F)F)cn3)cc(F)c2F)N=C(N)S[C@@]2(C#N)C[C@H]21` [Example 1012, N-(3-((1S,5S,6S)-3-amino-1-cyano-5-methyl-2-thia-4-azabicyclo[4.1.0]hept-3-en-5-yl)-4,5-difluorophenyl)-5-(2,2,2-trifluoroethoxy)-2-pyridinecarboxamide], the half-maximal inhibitory concentration (IC50) in test [1] was over 400 µM; in test [2] it was 3990 pM; in test [3] it was 0.111 µM; in test [4], 0.095 µM.

Regarding `COC[C@]12C[C@H]1[C@@](C)(c1cc(NC(=O)c3cnc(OCc4noc(C)n4)cn3)cc(F)c1F)N=C(N)S2` [Example 1013, N-(3-((1S,5S,6S)-3-amino-1-(methoxymethyl)-5-methyl-2-thia-4-azabicyclo[4.1.0]hept-3-en-5-yl)-4,5-difluorophenyl)-5-((5-methyl-1,2,4-oxadiazol-3-yl)methoxy)-2-pyrazinecarboxamide], the half-inhibitory concentration (IC50) stood at 959 µM in test [1], 1390 pM in test [2], 0.00144 µM in test [3] and 0.0541 µM in test [4].

Take `COC[C@]12C[C@H]1[C@@](C)(c1cc(NC(=O)c3cnc(OCc4nc(C)no4)cn3)cc(F)c1F)N=C(N)S2` [Example 1014, N-(3-((1S,5S,6S)-3-amino-1-(methoxymethyl)-5-methyl-2-thia-4-azabicyclo[4.1.0]hept-3-en-5-yl)-4,5-difluorophenyl)-5-((3-methyl-1,2,4-oxadiazol-5-yl)methoxy)-2-pyrazinecarboxamide]: the IC50 worked out at 2560 µM in test [1], 879 pM in test [2], 0.00289 µM in test [3] and 0.192 µM in test [4].

With `Cc1cc(OCC(F)(F)F)cnc1C(=O)Nc1cc(F)c(F)c([C@@]2(C)N=C(N)S[C@@]3(C#N)C[C@H]32)c1` [Example 1015, N-(3-((1S,5S,6S)-3-amino-1-cyano-5-methyl-2-thia-4-azabicyclo[4.1.0]hept-3-en-5-yl)-4,5-difluorophenyl)-3-methyl-5-(2,2,2-trifluoroethoxy)-2-pyridinecarboxamide], the concentration for half-maximal inhibition (IC50) is over 400 µM in test [1], 4970 pM in test [2], 0.00686 µM in test [3] and 0.185 µM in test [4].
